Structures can show the parent of a compound that is named as a salt. Where two headings read alike, the source gives them in different places.
Tests used:
[1] = test system: 60 cancer cell lines (NCI 60 cancer cell line series); conditions: cited from earlier work
[2] = test system: 60 cancer cell lines (NCI 60 cancer cell line series); experiment: NCI-DTP in vitro cancer screen, sulforhodamine B (SRB) growth inhibition, 48 hour exposure; assay type: cell-based, human
Procedure, shortened: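 NCI-DTP panel of 60 cancer cell lines plated day 0 at line-specific densities, exposed from day 1 to compound at 5 ten-fold-spaced doses in duplicate wells. After 48 h, cell mass stained with sulforhodamine B; −log GI50 derived from dose–response curves, averaged, and classed Low, Medium or High sensitivity.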

## CC[C@@]1(O)C(=O)OCc2c1cc1n(c2=O)Cc2cc3c(CN(C)C)c(O)ccc3nc2-1 [Topotecan]
[1]; CNS SF-268 CL12014
  −Log (GI50): 7.7
[1]; Leukemia CCRF-CEM(I) CL7003
  −Log (GI50): 7.9
[1]; Leukemia MOLT-4 CL7006
  −Log (GI50): 7.9
[1]; NSCLC HOP-62 CL1026
  −Log (GI50): 7.9
[1]; NSCLC NCI-H23(I) CL1001
  −Log (GI50): 7.4
[1]; NSCLC NCI-H460 CL1021
  −Log (GI50): 7.7

## CS(=O)(=O)OCCCCOS(C)(=O)=O [Busulfan]
[2]; Breast BT-549 CL5013
  classification of cell line as Low(1), Medium(2), High(3) sensitivity to compound: 1
[2]; Breast HS-578T CL5006
  classification of cell line as Low(1), Medium(2), High(3) sensitivity to compound: 1
[2]; Breast MCF7(I) CL5001
  classification of cell line as Low(1), Medium(2), High(3) sensitivity to compound: 2
[2]; Breast MCF7/ADRr CL5002
  classification of cell line as Low(1), Medium(2), High(3) sensitivity to compound: 2
[2]; Breast MDA-MB-231 CL5005
  classification of cell line as Low(1), Medium(2), High(3) sensitivity to compound: 1
[2]; Breast MDA-MB-435 CL5011
  classification of cell line as Low(1), Medium(2), High(3) sensitivity to compound: 1
[2]; Breast MDA-N CL5012
  classification of cell line as Low(1), Medium(2), High(3) sensitivity to compound: 2
[2]; Breast T-47D CL5014
  classification of cell line as Low(1), Medium(2), High(3) sensitivity to compound: 1
[2]; CNS SF-268 CL12014
  classification of cell line as Low(1), Medium(2), High(3) sensitivity to compound: 2
[2]; CNS SF-295 CL12015
  classification of cell line as Low(1), Medium(2), High(3) sensitivity to compound: 2
[2]; CNS SF-539 CL12016
  classification of cell line as Low(1), Medium(2), High(3) sensitivity to compound: 1
[2]; CNS SNB-19 CL12002
  classification of cell line as Low(1), Medium(2), High(3) sensitivity to compound: 2
[2]; CNS SNB-75(I) CL12005
  classification of cell line as Low(1), Medium(2), High(3) sensitivity to compound: 3
[2]; CNS U251(I) CL12009
  classification of cell line as Low(1), Medium(2), High(3) sensitivity to compound: 1
[2]; Colon COLO-250 CL4010
  classification of cell line as Low(1), Medium(2), High(3) sensitivity to compound: 2
[2]; Colon HCC-2998 CL4002
  classification of cell line as Low(1), Medium(2), High(3) sensitivity to compound: 2
[2]; Colon HCT-15 CL4015
  classification of cell line as Low(1), Medium(2), High(3) sensitivity to compound: 2
[2]; Colon HCT-116 CL4003
  classification of cell line as Low(1), Medium(2), High(3) sensitivity to compound: 1
[2]; Colon HT29(I) CL4001
  classification of cell line as Low(1), Medium(2), High(3) sensitivity to compound: 1
[2]; Colon KM12 CL4017
  classification of cell line as Low(1), Medium(2), High(3) sensitivity to compound: 1
[2]; Colon SW-620 CL4009
  classification of cell line as Low(1), Medium(2), High(3) sensitivity to compound: 2
[2]; Leukemia CCRF-CEM(I) CL7003
  classification of cell line as Low(1), Medium(2), High(3) sensitivity to compound: 3
[2]; Leukemia HL-60(I) CL7008
  classification of cell line as Low(1), Medium(2), High(3) sensitivity to compound: 3
[2]; Leukemia K562(I) CL7005
  classification of cell line as Low(1), Medium(2), High(3) sensitivity to compound: 2
[2]; Leukemia MOLT-4 CL7006
  classification of cell line as Low(1), Medium(2), High(3) sensitivity to compound: 3
[2]; Leukemia RPMI-8226(I) CL7010
  classification of cell line as Low(1), Medium(2), High(3) sensitivity to compound: 1
[2]; Leukemia SR CL7019
  classification of cell line as Low(1), Medium(2), High(3) sensitivity to compound: 3
[2]; Melanoma LOX IMVI CL10001
  classification of cell line as Low(1), Medium(2), High(3) sensitivity to compound: 2
[2]; Melanoma M14 CL10014
  classification of cell line as Low(1), Medium(2), High(3) sensitivity to compound: 1
[2]; Melanoma MALME-3M CL10002
  classification of cell line as Low(1), Medium(2), High(3) sensitivity to compound: 1
[2]; Melanoma SK-MEL-2 CL10005
  classification of cell line as Low(1), Medium(2), High(3) sensitivity to compound: 1
[2]; Melanoma SK-MEL-5 CL10007
  classification of cell line as Low(1), Medium(2), High(3) sensitivity to compound: 2
[2]; Melanoma SK-MEL-28 CL10008
  classification of cell line as Low(1), Medium(2), High(3) sensitivity to compound: 2
[2]; Melanoma UACC-62 CL10020
  classification of cell line as Low(1), Medium(2), High(3) sensitivity to compound: 2
[2]; Melanoma UACC-257 CL10021
  classification of cell line as Low(1), Medium(2), High(3) sensitivity to compound: 2
[2]; NSCLC A549/ATCC CL1004
  classification of cell line as Low(1), Medium(2), High(3) sensitivity to compound: 2
[2]; NSCLC EKVX CL1008
  classification of cell line as Low(1), Medium(2), High(3) sensitivity to compound: 2
[2]; NSCLC HOP-62 CL1026
  classification of cell line as Low(1), Medium(2), High(3) sensitivity to compound: 2
[2]; NSCLC HOP-92 CL1029
  classification of cell line as Low(1), Medium(2), High(3) sensitivity to compound: 2
[2]; NSCLC NCI-H23(I) CL1001
  sensitivity classification Low(1)/Medium(2)/High(3): 2
[2]; NSCLC NCI-H226 CL1013
  classification of cell line as Low(1), Medium(2), High(3) sensitivity to compound: 2
[2]; NSCLC NCI-H332M CL1017
  sensitivity classification Low(1)/Medium(2)/High(3): 1
[2]; NSCLC NCI-H460 CL1021
  sensitivity classification Low(1)/Medium(2)/High(3): 3
[2]; NSCLC NCI-H522 CL1003
  sensitivity classification Low(1)/Medium(2)/High(3): 1
[2]; Ovarian IGROV1 CL6010
  sensitivity classification Low(1)/Medium(2)/High(3): 1
[2]; Ovarian OVCAR-3 CL6001
  sensitivity classification Low(1)/Medium(2)/High(3): 2
[2]; Ovarian OVCAR-4 CL6002
  sensitivity classification Low(1)/Medium(2)/High(3): 2
[2]; Ovarian OVCAR-5 CL6003
  sensitivity classification Low(1)/Medium(2)/High(3): 1
[2]; Ovarian OVCAR-8 CL6005
  sensitivity classification Low(1)/Medium(2)/High(3): 1
[2]; Ovarian SK-OV-3 CL6011
  sensitivity classification Low(1)/Medium(2)/High(3): 1
[2]; Prostate DU-145 CL11003
  sensitivity classification Low(1)/Medium(2)/High(3): 2
[2]; Prostate PC-3(I) CL11001
  sensitivity classification Low(1)/Medium(2)/High(3): 1
[2]; Renal 786-0 CL9018
  sensitivity classification Low(1)/Medium(2)/High(3): 2
[2]; Renal A498 CL9013
  sensitivity classification Low(1)/Medium(2)/High(3): 1
[2]; Renal ACHN CL9023
  sensitivity classification Low(1)/Medium(2)/High(3): 2
[2]; Renal CAKI-1 CL9015
  sensitivity classification Low(1)/Medium(2)/High(3): 3
[2]; Renal RXF-393 CL9016
  sensitivity classification Low(1)/Medium(2)/High(3): 3
[2]; Renal SN12C CL9008
  sensitivity classification Low(1)/Medium(2)/High(3): 2
[2]; Renal TK10 CL9024
  sensitivity classification Low(1)/Medium(2)/High(3): 1
[2]; Renal UO-31 CL9004
  sensitivity classification Low(1)/Medium(2)/High(3): 1

## CC[C@]1(O)C[C@@H]2CN(CCc3c([nH]c4ccccc34)[C@@](C(=O)OC)(c3cc4c(cc3OC)N(C)[C@H]3[C@@](O)(C(=O)OC)[C@H](OC(C)=O)[C@]5(CC)C=CCN6CC[C@]43[C@@H]65)C2)C1 [Vinblastine sulfate]
[2]; Breast HS-578T CL5006
  classification of cell line as Low(1), Medium(2), High(3) sensitivity to compound: 3
[2]; Breast MCF7/ADRr CL5002
  classification of cell line as Low(1), Medium(2), High(3) sensitivity to compound: 1
[2]; Breast MDA-MB-231 CL5005
  classification of cell line as Low(1), Medium(2), High(3) sensitivity to compound: 2
[2]; Breast MDA-MB-435 CL5011
  classification of cell line as Low(1), Medium(2), High(3) sensitivity to compound: 3
[2]; Breast MDA-N CL5012
  classification of cell line as Low(1), Medium(2), High(3) sensitivity to compound: 3
[2]; CNS SF-268 CL12014
  classification of cell line as Low(1), Medium(2), High(3) sensitivity to compound: 2
[2]; CNS SF-295 CL12015
  classification of cell line as Low(1), Medium(2), High(3) sensitivity to compound: 2
[2]; CNS SF-539 CL12016
  classification of cell line as Low(1), Medium(2), High(3) sensitivity to compound: 2
[2]; CNS SNB-19 CL12002
  classification of cell line as Low(1), Medium(2), High(3) sensitivity to compound: 2
[2]; CNS U251(I) CL12009
  classification of cell line as Low(1), Medium(2), High(3) sensitivity to compound: 2
[2]; Colon HCC-2998 CL4002
  classification of cell line as Low(1), Medium(2), High(3) sensitivity to compound: 2
[2]; Colon HCT-15 CL4015
  classification of cell line as Low(1), Medium(2), High(3) sensitivity to compound: 1
[2]; Colon KM12 CL4017
  classification of cell line as Low(1), Medium(2), High(3) sensitivity to compound: 2
[2]; Colon SW-620 CL4009
  classification of cell line as Low(1), Medium(2), High(3) sensitivity to compound: 2
[2]; Leukemia CCRF-CEM(I) CL7003
  classification of cell line as Low(1), Medium(2), High(3) sensitivity to compound: 2
[2]; Leukemia HL-60(I) CL7008
  classification of cell line as Low(1), Medium(2), High(3) sensitivity to compound: 3
[2]; Leukemia MOLT-4 CL7006
  classification of cell line as Low(1), Medium(2), High(3) sensitivity to compound: 2
[2]; Melanoma M14 CL10014
  classification of cell line as Low(1), Medium(2), High(3) sensitivity to compound: 2
[2]; Melanoma MALME-3M CL10002
  classification of cell line as Low(1), Medium(2), High(3) sensitivity to compound: 2
[2]; Melanoma SK-MEL-2 CL10005
  classification of cell line as Low(1), Medium(2), High(3) sensitivity to compound: 2
[2]; Melanoma SK-MEL-5 CL10007
  classification of cell line as Low(1), Medium(2), High(3) sensitivity to compound: 3
[2]; Melanoma SK-MEL-28 CL10008
  classification of cell line as Low(1), Medium(2), High(3) sensitivity to compound: 2
[2]; Melanoma UACC-62 CL10020
  classification of cell line as Low(1), Medium(2), High(3) sensitivity to compound: 3
[2]; NSCLC A549/ATCC CL1004
  classification of cell line as Low(1), Medium(2), High(3) sensitivity to compound: 2
[2]; NSCLC EKVX CL1008
  classification of cell line as Low(1), Medium(2), High(3) sensitivity to compound: 1
[2]; NSCLC HOP-62 CL1026
  classification of cell line as Low(1), Medium(2), High(3) sensitivity to compound: 2
[2]; NSCLC HOP-92 CL1029
  classification of cell line as Low(1), Medium(2), High(3) sensitivity to compound: 2
[2]; NSCLC NCI-H23(I) CL1001
  sensitivity classification Low(1)/Medium(2)/High(3): 2
[2]; NSCLC NCI-H226 CL1013
  classification of cell line as Low(1), Medium(2), High(3) sensitivity to compound: 2
[2]; NSCLC NCI-H332M CL1017
  sensitivity classification Low(1)/Medium(2)/High(3): 2
[2]; NSCLC NCI-H460 CL1021
  sensitivity classification Low(1)/Medium(2)/High(3): 2
[2]; NSCLC NCI-H522 CL1003
  sensitivity classification Low(1)/Medium(2)/High(3): 3
[2]; Ovarian IGROV1 CL6010
  sensitivity classification Low(1)/Medium(2)/High(3): 2
[2]; Ovarian OVCAR-3 CL6001
  sensitivity classification Low(1)/Medium(2)/High(3): 3
[2]; Ovarian OVCAR-8 CL6005
  sensitivity classification Low(1)/Medium(2)/High(3): 2
[2]; Ovarian SK-OV-3 CL6011
  sensitivity classification Low(1)/Medium(2)/High(3): 2
[2]; Renal 786-0 CL9018
  sensitivity classification Low(1)/Medium(2)/High(3): 2
[2]; Renal CAKI-1 CL9015
  sensitivity classification Low(1)/Medium(2)/High(3): 2
[2]; Renal RXF-393 CL9016
  sensitivity classification Low(1)/Medium(2)/High(3): 2
[2]; Renal SN12C CL9008
  sensitivity classification Low(1)/Medium(2)/High(3): 2
[2]; Renal TK10 CL9024
  sensitivity classification Low(1)/Medium(2)/High(3): 1
[2]; Renal UO-31 CL9004
  sensitivity classification Low(1)/Medium(2)/High(3): 1
